How the values were obtained:
tumor cell lines = settings: cited from earlier work
[1] = system: cancers responsive to paclitaxel; test: Long term administration of paclitaxel at sub-therapeutic dose levels in cancer treatment; assay type: in vivo
Excerpt: In rapidly dividing cells as in a tumor, different cells are in different phases of the cell cycle at any given time.
The entire dose is usually given on the first day of the 3 week cycle.

Structure (SMILES): CC(=O)O[C@H]1C(=O)[C@@]2(C)[C@H]([C@H](OC(=O)c3ccccc3)[C@]3(O)C[C@H](OC(=O)[C@H](O)[C@@H](NC(=O)c4ccccc4)c4ccccc4)C(C)=C1C3(C)C)[C@]1(OC(C)=O)CO[C@@H]1C[C@@H]2O [paclitaxel]
- concentration at which paclitaxel is active on tumor cell lines (tumor cell lines; in vitro, tumor cell lines): ~0.5 µg/mL
- levels high enough to be cytotoxic to the tumor cells (tumor cell lines; tumor cells of the cancer being treated): 500 to 1000 ng/mL
- benefit in the treatment of cancers responsive to paclitaxel ([1]; continuous administration over 3 weeks, total cumulative dose e.g. 50-150 mg/m^2): significant benefit is obtained
- benefit in the treatment of cancers responsive to paclitaxel ([1]; plasma levels maintained at 0.01-0.05 μg/ml over a week or longer): significant benefit is obtained
